1 molecule from patent US12600725B2 (Memorial Sloan-Kettering Cancer Center, priority 2013, dated 2026) can be followed below.

Each structure is given as a SMILES string.

The test system of series [1] is Hsp70 induction in HEK293 cells. The experiment in a line: Hsp70 induction in HA-TLR9 transfected HEK293 cells. It is filed as cell-based, human. Conditions: 24 h. How it is done: Cell fractionation and immunoblotting. Cells were either treated with DMSO (vehicle) or indicated compounds for 24 hr and lysed in RIPA buffer (50 mM Tris-HCl, pH 7.4, 150 mM NaCl, 0.5% sodium deoxycholate and 0.5% NP40) supplemented with cocktail protease inhibitors (Roche) to produce whole cell lysates. Lysates for cytosol and membrane fractions were harvested using ProteoExtract Subcellular Proteome Extraction Kit (Calbiochem) following the manufacturer's instructions. Protein concentrations were determined using BCA kit (Pierce) according to the manufacturer's instructions. The protein lysates ([…]) were electrophoretically resolved by SDS-PAGE, transferred onto nitrocellulose membranes and probed with the indicated primary antibodies against: HER^2 (Zymed, 28004), Hsp70 (Stressgen, SPA-810), Grp94 (Stressgen, SPA-850), Hsp90α (Abcam, Ab2928), Hsp90β (StressMarq, SMC-107B), Grp78 (Cell Signaling, 3183), Raf-1 (Santa Cruz, sc-133), phospho-Raf-1 (Cell Signaling, 9421), MEK1/2 (Cell Signaling, 8727), phospho-MEK1/2 (Cell Signaling, 9154), ERK1/2 (Cell Signaling, 4695), phospho-ERK1/2 (Cell Signaling, 4370), AKT (Cell Signaling, 9272), GM130 (Cell Signaling, 2296), Flotillin 2 (Cell Signaling, 3436), Histone H4 (Cell Signaling, 2592), Histone H1 (Santa Cruz, sc-8030), Caspase 3 (Cell Signaling, 9665), cleaved PARP (Promega, G7341), a-tubulin (Sigma, T5168) and 3-actin (Sigma, A1978). After washing off the excess antibodies, the membranes were incubated with the corresponding horseradish peroxidase (HRP) conjugated secondary antibody. Blots were visualized by autoradiography using the Enhanced Chemiluminescence Detection System (GE Healthcare) according to manufacturer's instructions. […]
TLR^9-trafficking assay (Yang, Y. et al. Heat shock protein gp96 is a master chaperone for toll-like receptors and is important in the innate function of macrophages. Immunity 26, 215-26 (2007)). […] Fluorescence intensity was quantified using MetaMorph Microscopy Automation and Image Analysis Software (Molecular Devices Inc.) and normalized to the cell number.

Series [2] has as its system HEK293 cells. The experiment in a line: Toxicity to HEK293 cells. It is filed as cell-based, human.
Series [3] concerns 97 kinases. The experiment in a line: Kinase screen (Discoverx scanEDGE / KINOMEscan). The series is classed as binding. Particulars: tested at 10 uM.
Series [4] deals with NCI-N87 cells. The experiment in a line: Cell viability assessment (CellTiter-Glo). The series is classed as cell-based. In general terms: Cellular ATP, detected with luciferase, serves as a proxy for viable cell number.
Series [5] has as its system EGFR and its downstream signaling in HMEC cells. The experiment in a line: Western blot of EGFR and downstream signaling in normal cells. Particulars: 24 h. It is filed as cell-based, human. On the procedure: For comparison, the agent was also tested in a normal cell line, human mammary epithelial cells (HMECs). […] Without wishing to be bound by any particular theory, it is believed that a Grp94 selective inhibitor may therefore have a better therapeutic index than a direct RTK modulator (i.e. TKI or antibody) because it will act on the RTK only in conditions of oncogenic overexpression (see EGFR in TNBC cell lines vs HMEC). […] Approximately half of cases of triple-negative breast cancer (TNBC) and inflammatory breast cancer (IBC) overexpress EGFR, nonetheless clinical trials testing EGFR inhibitors reported lack of or limited benefit (Masuda H. et al. Breast Cancer Res Treat. 2012 November; 136(2):331-45). Without wishing to be bound by any particular theory, it is believed that such ineffectiveness is due to a crosstalk between EGFR and c-Met or other RTKs, because strategies that knocked down EGFR either by siRNA or by mixtures of antibodies that induces robust degradation of EGFR, led to reduced viability of TNBC cells (Mueller et al., Breast Cancer Res. 2012 Jul. 12; 14(4):R^104; Ferraro et al., Proc Natl Acad Sci USA. 2013 Jan. 29; 110(5):1815-20. PMID:23319610). […] Protein concentrations were determined using BCA kit (Pierce) according to the manufacturer's instructions. […]
(A western blot detects proteins with antibodies after separation by electrophoresis.)

For `CC(C)NCCCn1c(Sc2cc(Cl)cc(Cl)c2)nc2c(N)ncnc21` [PU-WS13], the Hsp70 induction result in series [1] is reported as “fails to induce Hsp70”. In series [2], the “toxicity to HEK293 cells” value is given as “not toxic”. For the same molecule, the “effect on the tested 97 kinases” value in series [3] is given as “no significant effect”. For the same molecule, in series [4], the “sensitivity to Grp94 inhibition” value is listed as “highly susceptible”. The “effect on EGFR and its downstream signaling in normal cells” value in series [5] is “does not affect EGFR and its downstream signaling”.
